Measured values from the supplement of paper PMC10307832.

Legend:
Test in all cases: relative viability (nuclei count vs DMSO), 5 days (fraction); higher = more cells survive
NCI-H1993 = system: NCI-H1993
In short: (§1)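 Medians of duplicate plates are given as relative viability. That measure is the nuclei count in treated wells divided by the count in vehicle wells. Counts were taken on 4× images of lung cancer cell lines in 1536-well plates, 5 days after pin-tool dosing the day after seeding with one drug alone or a fixed anchor-drug dose plus five library-drug doses (not always all listed) in √10 steps.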

NCI-H1915 = system: NCI-H1915
In short: as §1

A-427 = system: A-427
In short: as §1

SK-MES-1 = system: SK-MES-1
In short: as §1

BEN = system: BEN
In short: as §1

NCI-H460 = system: NCI-H460
In short: as §1

NCI-H2405 = system: NCI-H2405
In short: as §1

HCC-366 = system: HCC-366
In short: as §1

HOP-62 = system: HOP-62
In short: as §1

201T = system: 201T
In short: as §1

LK-2 = system: LK-2
In short: as §1

COR-L 105 = system: COR-L 105
In short: as §1

EMC-BAC-2 = system: EMC-BAC-2
In short: as §1

NCI-H661 = system: NCI-H661
In short: as §1

HCC-15 = system: HCC-15
In short: as §1

EKVX = system: EKVX
In short: as §1

NCI-H1734 = system: NCI-H1734
In short: as §1

NCI-H647 = system: NCI-H647
In short: as §1

HCC-78 = system: HCC-78
In short: as §1

NCI-H522 = system: NCI-H522
In short: as §1

PC-14 = system: PC-14
In short: as §1

COR-L23 = system: COR-L23
In short: as §1

CCNC(=O)c1noc(-c2cc(C(C)C)c(O)cc2O)c1-c1ccc(CN2CCOCC2)cc1 [Luminespib] + O=C(CCCCCCC(=O)Nc1ccccc1)NO [Vorinostat] (partner 1 µM)
relative viability (NCI-H1993; first compound 0.002 µM): 0.893 | relative viability (NCI-H1993; first compound 0.006325 µM): 0.793 | relative viability (NCI-H1993; first compound 0.02 µM): 0.552 | relative viability (NCI-H1993; first compound 0.06325 µM): 0.246 | relative viability (NCI-H1993; first compound 0.2 µM): 0.238 | relative viability (NCI-H1915; first compound 0.002 µM): 0.556 | relative viability (NCI-H1915; first compound 0.006325 µM): 0.506 | relative viability (NCI-H1915; first compound 0.02 µM): 0.415 | relative viability (NCI-H1915; first compound 0.06325 µM): 0.477 | relative viability (NCI-H1915; first compound 0.2 µM): 0.0602 | relative viability (A-427; first compound 0.002 µM): 0.855 | relative viability (A-427; first compound 0.006325 µM): 0.319 | relative viability (A-427; first compound 0.02 µM): 0.807 | relative viability (A-427; first compound 0.06325 µM): 0.327 | relative viability (A-427; first compound 0.2 µM): 0.247 | relative viability (SK-MES-1; first compound 0.002 µM): 1.14 | relative viability (SK-MES-1; first compound 0.006325 µM): 0.931 | relative viability (SK-MES-1; first compound 0.02 µM): 1.04 | relative viability (SK-MES-1; first compound 0.06325 µM): 0.174 | relative viability (SK-MES-1; first compound 0.2 µM): 0.153 | relative viability (BEN; first compound 0.002 µM): 0.608 | relative viability (BEN; first compound 0.006325 µM): 0.546 | relative viability (BEN; first compound 0.02 µM): 0.358 | relative viability (BEN; first compound 0.06325 µM): 0.525 | relative viability (BEN; first compound 0.2 µM): 0.36 | relative viability (NCI-H460; first compound 0.002 µM): 0.775 | relative viability (NCI-H460; first compound 0.006325 µM): 0.68 | relative viability (NCI-H460; first compound 0.02 µM): 0.237 | relative viability (NCI-H460; first compound 0.06325 µM): 0.0162 | relative viability (NCI-H460; first compound 0.2 µM): 0.0131 | relative viability (NCI-H2405; first compound 0.002 µM): 1.11 | relative viability (NCI-H2405; first compound 0.02 µM): 0.884 | relative viability (NCI-H2405; first compound 0.06325 µM): 0.194 | relative viability (NCI-H2405; first compound 0.2 µM): 0.165 | relative viability (HCC-366; first compound 0.002 µM): 0.38 | relative viability (HCC-366; first compound 0.006325 µM): 0.35 | relative viability (HCC-366; first compound 0.02 µM): 0.18 | relative viability (HCC-366; first compound 0.06325 µM): 0.0252 | relative viability (HCC-366; first compound 0.2 µM): 0.0243 | relative viability (HOP-62; first compound 0.002 µM): 0.527 | relative viability (HOP-62; first compound 0.006325 µM): 0.555 | relative viability (HOP-62; first compound 0.02 µM): 0.454 | relative viability (HOP-62; first compound 0.06325 µM): 0.18 | relative viability (HOP-62; first compound 0.2 µM): 0.0867 | relative viability (201T; first compound 0.002 µM): 0.959 | relative viability (201T; first compound 0.006325 µM): 0.872 | relative viability (201T; first compound 0.02 µM): 0.768 | relative viability (201T; first compound 0.06325 µM): 0.913 | relative viability (201T; first compound 0.2 µM): 0.324 | relative viability (LK-2; first compound 0.002 µM): 0.305 | relative viability (LK-2; first compound 0.006325 µM): 0.374 | relative viability (LK-2; first compound 0.02 µM): 0.201 | relative viability (LK-2; first compound 0.06325 µM): 0.146 | relative viability (LK-2; first compound 0.2 µM): 0.163 | relative viability (COR-L 105; first compound 0.002 µM): 0.917 | relative viability (COR-L 105; first compound 0.006325 µM): 0.84 | relative viability (COR-L 105; first compound 0.02 µM): 0.959 | relative viability (COR-L 105; first compound 0.06325 µM): 0.43 | relative viability (COR-L 105; first compound 0.2 µM): 0.278 | relative viability (EMC-BAC-2; first compound 0.002 µM): 0.461 | relative viability (EMC-BAC-2; first compound 0.02 µM): 0.263 | relative viability (EMC-BAC-2; first compound 0.06325 µM): 0.148 | relative viability (EMC-BAC-2; first compound 0.2 µM): 0.178 | relative viability (NCI-H661; first compound 0.002 µM): 0.777 | relative viability (NCI-H661; first compound 0.006325 µM): 0.803 | relative viability (NCI-H661; first compound 0.02 µM): 0.759 | relative viability (NCI-H661; first compound 0.06325 µM): 0.345 | relative viability (NCI-H661; first compound 0.2 µM): 0.306 | relative viability (HCC-15; first compound 0.002 µM): 0.792 | relative viability (HCC-15; first compound 0.006325 µM): 0.805 | relative viability (HCC-15; first compound 0.02 µM): 0.942 | relative viability (HCC-15; first compound 0.06325 µM): 0.583 | relative viability (HCC-15; first compound 0.2 µM): 0.173 | relative viability (EKVX; first compound 0.002 µM): 0.466 | relative viability (EKVX; first compound 0.006325 µM): 0.684 | relative viability (EKVX; first compound 0.02 µM): 0.47 | relative viability (EKVX; first compound 0.06325 µM): 0.669 | relative viability (EKVX; first compound 0.2 µM): 0.572 | relative viability (NCI-H1734; first compound 0.002 µM): 0.719 | relative viability (NCI-H1734; first compound 0.006325 µM): 0.719 | relative viability (NCI-H1734; first compound 0.02 µM): 0.436 | relative viability (NCI-H1734; first compound 0.06325 µM): 0.132 | relative viability (NCI-H1734; first compound 0.2 µM): 0.123 | relative viability (NCI-H647; first compound 0.002 µM): 0.584 | relative viability (NCI-H647; first compound 0.006325 µM): 0.381 | relative viability (NCI-H647; first compound 0.02 µM): 0.646 | relative viability (NCI-H647; first compound 0.06325 µM): 0.11 | relative viability (NCI-H647; first compound 0.2 µM): 0.0869 | relative viability (HCC-78; first compound 0.002 µM): 0.381 | relative viability (HCC-78; first compound 0.006325 µM): 0.426 | relative viability (HCC-78; first compound 0.02 µM): 0.283 | relative viability (HCC-78; first compound 0.06325 µM): 0.519 | relative viability (HCC-78; first compound 0.2 µM): 0.356 | relative viability (NCI-H522; first compound 0.002 µM): 0.81 | relative viability (NCI-H522; first compound 0.006325 µM): 0.904 | relative viability (NCI-H522; first compound 0.02 µM): 0.772 | relative viability (NCI-H522; first compound 0.06325 µM): 0.607 | relative viability (NCI-H522; first compound 0.2 µM): 0.354 | relative viability (PC-14; first compound 0.002 µM): 0.787 | relative viability (PC-14; first compound 0.006325 µM): 0.639 | relative viability (PC-14; first compound 0.02 µM): 0.121 | relative viability (PC-14; first compound 0.06325 µM): 0.0465 | relative viability (PC-14; first compound 0.2 µM): 0.0692 | relative viability (COR-L23; first compound 0.002 µM): 0.469 | relative viability (COR-L23; first compound 0.006325 µM): 0.364 | relative viability (COR-L23; first compound 0.02 µM): 0.396 | relative viability (COR-L23; first compound 0.06325 µM): 0.0788 | relative viability (COR-L23; first compound 0.2 µM): 0.0814
